Experimental data taken from US12568967B2, “Compositions comprising pyridine carboxylate herbicides with synthetic auxin herbicides or auxin transport inhibitors” (priority 2018, dated 2026).
“And” between values parts separate entries of the source, which are not always exact repeats. Equal values may be shown once.

Experiments:
[1] = system: Polygonum convolvulus (wild buckwheat, POLCO); experiment: Greenhouse postemergence trial POLCO; assay type: in vivo
Method: (§1) Seeds of the desired test plant species were planted in a 90:10% v/v (volume/volume) mixture of PRO-MIX® BX (Premier Tech Horticulture, Quakertown, PA, USA) and PROFILE® GREENS GRADE™ (Profile Products LLC, Buffalo Grove, IL, USA) planting mixture, which typically has a pH of 5.2 to 6.2 and an organic matter content of at least 50 percent, in plastic pots with a surface area of 103.2 square centimeters (cm^2). […] The plants were grown for 7-36 days (d) in a greenhouse with an approximate 14-hour (h) photo-period which was maintained at about 23° C. during the day and 22° C. during the night. Nutrients and water were added on a regular basis and supplemental lighting was provided with overhead metal halide 1000-Watt lamps as necessary. The plants were employed for testing when they reached the second or third true leaf stage.
(§2) Emulsifiable concentrates of each of each pyridine carboxylate herbicide (Compound A or Compound B) were prepared at 100 grams acid equivalent per liter (g ae/L). The emulsifiable concentrates also included a safener, cloquintocet-mexyl, at 120 grams active ingredient per liter (g ai/L), unless otherwise noted below. An aliquot of each emulsifiable concentrate was placed in a 25 mL glass vial and diluted with an aqueous mixture of 1.25% (v/v) ACTIROB® B esterified rapeseed oil (Bayer Crop Science, Research Triangle Park, NC, USA) or MSO® Concentrate with LECI-TECH® methylated soybean oil (Loveland Products, Loveland, CO, USA) to obtain concentrated stock solutions at the highest application rate for each herbicide, based upon a 12 milliliter (mL) application volume at a rate of 187 liters per hectare (L/ha). The concentrated stock solutions were further diluted with an aqueous mixture of 1.25% v/v ACTIROB® B or MSO® Concentrate with LECI-TECH® to obtain stock solutions at reduced application rates for each herbicide. Spray solutions of the herbicide combinations (Compound A or Compound B plus synthetic auxin herbicide or auxin transport inhibitor) were prepared by adding weighed amounts or aliquots of the synthetic auxin herbicide or auxin transport inhibitor to the stock solutions of Compound A or Compound B to form 12-mL spray solutions in two-way combinations.
(§3) The spray solutions were applied to the plant material with an overhead Mandel track sprayer equipped with 8002E nozzles calibrated to deliver 187 L/ha over an application area of 0.503 square meters (m^2) at a spray height of 18 inches (43 centimeters (cm)) above the average plant canopy. Control plants were sprayed in the same manner with the solvent blank. All pyridine carboxylate herbicide (component a) application rates are given as “g ae/ha” and all synthetic auxin herbicide or auxin transport inhibitor (component b) application rates are given as “g ai/ha.”
(§4) The treated plants and control plants were placed in a greenhouse as described above and watered by sub-irrigation to prevent wash-off of the test compounds. After 20-22 d, the condition of the test plants as compared with that of the control plants was determined visually and scored on a scale of 0 to 100 percent where 0 corresponds to no injury and 100 corresponds to complete kill.

[2] = system: Cirsium arvense (Canadian thistle, CIRAR); experiment: Greenhouse postemergence trial CIRAR; assay type: in vivo
Method: as §1, §2, §3, §4

[3] = system: Amaranthus retroflexus (pigweed, AMARE); experiment: Greenhouse postemergence trial AMARE; assay type: in vivo;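 note: Greenhouse-grown plants sprayed at second to third true leaf stage, injury rated by eye after 20-22 d versus solvent-blank sprayed controls, 0 = no injury, 100 = complete kill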
Method: The plants were grown for 7-36 days (d) in a greenhouse with an approximate 14-hour (h) photo-period which was maintained at about 23° C. during the day and 22° C. during the night. Nutrients and water were added on a regular basis and supplemental lighting was provided with overhead metal halide 1000-Watt lamps as necessary. The plants were employed for testing when they reached the second or third true leaf stage.
The emulsifiable concentrates also included a safener, cloquintocet-mexyl, at 120 grams active ingredient per liter (g ai/L), unless otherwise noted below.
Control plants were sprayed in the same manner with the solvent blank. All pyridine carboxylate herbicide (component a) application rates are given as “g ae/ha” and all synthetic auxin herbicide or auxin transport inhibitor (component b) application rates are given as “g ai/ha.”
as §4

[4] = system: Viola arvensis (field violet, VIOAR); experiment: Greenhouse postemergence trial VIOAR; assay type: in vivo; conditions: for % visual injury Obs: alone; for % visual injury, Obs: applied alone; for % visual injury: c1-3 Compound A 7.5/10/15
Method: as §1, §2, §3, §4

[5] = system: Papaver rhoeas (corn poppy, PAPRH); experiment: Greenhouse postemergence trial PAPRH; assay type: in vivo; conditions: PAPRH; for % visual injury Obs: alone; for % visual injury, Obs: applied alone
[6] = system: Papaver rhoeas (corn poppy), herbicide-resistant (PAPRH-R); experiment: Greenhouse postemergence trial PAPRH-R; assay type: in vivo; conditions: PAPRH-R; for % visual injury, Obs: applied alone
[7] = system: Anthemis arvensis (field chamomile, ANTAR); experiment: Greenhouse postemergence trial ANTAR; assay type: in vivo; conditions: ANTAR; for % visual injury Obs: alone; for % visual injury, Obs: applied alone
[8] = system: Matricaria discoidea (pineapple weed, MATMT); experiment: Greenhouse postemergence trial MATMT; assay type: in vivo; conditions: MATMT; for % visual injury Obs: alone; for % visual injury, Obs: applied alone
[9] = system: Triticum aestivum (winter wheat, TRZAW); experiment: Greenhouse postemergence crop phytotoxicity TRZAW; assay type: in vivo; conditions: for % visual injury Obs / visual injury, Obs / % visual injury, Obs: TRZAW; for % visual injury, Obs: applied alone; for % visual injury (crop phytotoxicity): c1-3 Compound A 7.5/10/15
Method: as §1, §2, §3, §4

[10] = system: Brassica napus (spring rape, BRSNN); experiment: Greenhouse postemergence trial BRSNN; assay type: in vivo
[11] = system: Glycine max (volunteer soybean, GLXMA); experiment: Greenhouse postemergence trial GLXMA; assay type: in vivo; conditions: Compound A 10 g/ha
Method: as §1, §2, §3, §4

[12] = system: Helianthus annuus (common sunflower, HELAN); experiment: Greenhouse postemergence trial HELAN; assay type: in vivo; conditions: Compound A 10 g/ha
Method: as §1, §2, §3, §4

[13] = system: Setaria faberi (giant foxtail, SETFA); experiment: Greenhouse postemergence trial SETFA; assay type: in vivo; conditions: Compound A 10 g/ha
Method: as §1, §2, §3, §4

[14] = system: Sorghum vulgare (grain sorghum, SORVU); experiment: Greenhouse postemergence trial SORVU; assay type: in vivo; conditions: Compound A 10 g/ha
Method: as §1
Emulsifiable concentrates of each of each pyridine carboxylate herbicide (Compound A or Compound B) were prepared at 100 grams acid equivalent per liter (g ae/L). The emulsifiable concentrates also included a safener, cloquintocet-mexyl, at 120 grams active ingredient per liter (g ai/L), unless otherwise noted below. An aliquot of each emulsifiable concentrate was placed in a 25 mL glass vial and diluted with an aqueous mixture of 1.25% (v/v) ACTIROB® B esterified rapeseed oil (Bayer Crop Science, Research Triangle Park, NC, USA) or MSO® Concentrate with LECI-TECH® methylated soybean oil (Loveland Products, Loveland, CO, USA) to obtain concentrated stock solutions at the highest application rate for each herbicide, based upon a 12 milliliter (mL) application volume at a rate of 187 liters per hectare (L/ha). The concentrated stock solutions were further diluted with an aqueous mixture of 1.25% v/v ACTIROB® B or MSO® Concentrate with LECI-TECH® to obtain stock solutions at reduced application rates for each herbicide. Spray solutions of the herbicide combinations (Compound A or Compound B plus synthetic auxin herbicide or auxin transport inhibitor) were prepared by adding weighed amounts or aliquots of the synthetic auxin herbicide or auxin transport inhibitor to the stock solutions of Compound A or Compound B to form 12-mL spray solutions in two-way combinations. […]
as §4

[15] = system: Lamium purpureum (purple deadnettle, LAMPU); experiment: Greenhouse postemergence trial LAMPU; conditions: for % visual injury, Obs: applied alone
[16] = Compound A 10 g/ha, without safener
[17] = c4-5 Fluroxypyr-MHE 100/140, c6-8, c9-11 A 7.5/10/15 + Fluroxypyr-MHE 100, 140 g/ha
[18] = c4-6 Clopyralid 30/60/120, c7-9, c10-12, c13-15 A 7.5/10/15 + Clopyralid 30, 60, 120 g/ha
[19] = c4 Aminopyralid 5, c5-7 A 7.5/10/15 + Aminopyralid 5 g/ha
[20] = c4 Halauxifen-methyl 6, c5-7 A 7.5/10/15 + Halauxifen-methyl 6 g/ha
[21] = Papaver rhoeas, post-emergence, Compound A 7.5 g/ha, read-out: % visual injury Obs
[22] = Papaver rhoeas, post-emergence, Compound A 10 g/ha, read-out: % visual injury Obs
[23] = Papaver rhoeas, post-emergence, Compound A 15 g/ha, read-out: % visual injury Obs
[24] = Lamium purpureum, post-emergence, read-out: % visual injury Obs

N#CCOC(=O)c1nc(-c2ccc3cc[nH]c3c2F)c(F)c(N)c1Cl [Compound A, cyanomethyl 4-amino-3-chloro-5-fluoro-6-(7-fluoro-1H-indol-6-yl)pyridine-2-carboxylate]
55%: % visual injury, Obs ([10]; BRSNN, Compound A 10 g/ha) | BRSNN % visual injury Obs ([10]; Compound A 10 g/ha (Table 42)) | BRSNN % visual injury Obs ([10]; Compound A 10 g/ha (Table 43)) | BRSNN % visual injury Obs ([10]; Compound A 10 g/ha (Table 44))
90% and 43%: % visual injury, Obs ([1]; POLCO, applied alone, 10 g/ha)
5%: % visual injury [4, 17] | % visual injury [4, 18] | % visual injury [4, 19] | % visual injury [4, 20] | visual injury, Obs ([8]; Compound A 10 g/ha alone) | % visual injury Obs ([8]; 10 g/ha) | % visual injury, Obs ([8]; 10 g/ha) | pest or weed control at […] ([8]; Matricaria discoidea, post-emergence, Compound A 7.5 g/ha, read-out: % visual injury Obs) | pest or weed control at 10 g/ha ([8]; Matricaria discoidea, post-emergence, Compound A 10 g/ha, read-out: % visual injury Obs)
75%: % visual injury Obs ([15]; LAMPU, Compound A 15 g/ha) | visual injury, Obs ([15]; LAMPU, Compound A 15 g/ha alone) | % visual injury Obs ([15]; LAMPU, alone, 15 g/ha) | % visual injury, Obs ([15]; LAMPU, 15 g/ha) | pest or weed control at 15 g/ha [15, 24]
100% and 98%: AMARE Obs (% visual injury) ([3]; Compound A 10 g/ha)
0%: % visual injury Obs ([9]; Compound A 10 g/ha) | visual injury, Obs ([9]; Compound A 10 g/ha alone) | % visual injury Obs ([9]; Compound A 15 g/ha) | visual injury, Obs ([9]; Compound A 15 g/ha alone) | % visual injury Obs ([9]; alone, 10 g/ha) | % visual injury Obs ([9]; alone, 15 g/ha) | % visual injury, Obs ([9]; 10 g/ha) | % visual injury, Obs ([9]; 15 g/ha) | % visual injury (crop phytotoxicity) [9, 17] | % visual injury (crop phytotoxicity) [9, 18] | % visual injury (crop phytotoxicity) [9, 19] | % visual injury (crop phytotoxicity) [9, 20] | SETFA Obs (% visual injury) ([13]; without safener) | % visual injury, Obs ([13]; SETFA) | SORVU Obs (% visual injury) ([14]; without safener) | % visual injury, Obs ([14]; SORVU)
95%: pest or weed control at 15 g/ha ([1]; Fallopia convolvulus, post-emergence, POLCO, Compound A 15 g/ha, read-out: % visual injury Obs) | visual injury, Obs ([1]; POLCO, Compound A 15 g/ha alone) | % visual injury Obs ([1]; POLCO, alone, 15 g/ha) | % visual injury, Obs ([1]; POLCO, applied alone, 15 g/ha) | pest or weed control at […] ([7]; Anthemis arvensis, post-emergence, Compound A 7.5 g/ha, read-out: % visual injury Obs)
91%: POLCO % visual injury Obs ([1]; Compound A 10 g/ha (Table 42)) | POLCO % visual injury Obs ([1]; Compound A 10 g/ha (Table 43)) | POLCO % visual injury Obs ([1]; Compound A 10 g/ha (Table 44))
15%: visual injury, Obs ([4]; VIOAR, Compound A 15 g/ha alone) | % visual injury Obs ([4]; VIOAR, 15 g/ha) | % visual injury, Obs ([4]; VIOAR, 15 g/ha) | pest or weed control at 15 g/ha ([4]; Viola arvensis, post-emergence, VIOAR, Compound A 15 g/ha, read-out: % visual injury Obs) | visual injury, Obs ([8]; Compound A 15 g/ha alone) | % visual injury Obs ([8]; 15 g/ha) | % visual injury, Obs ([8]; 15 g/ha) | pest or weed control at 15 g/ha ([8]; Matricaria discoidea, post-emergence, Compound A 15 g/ha, read-out: % visual injury Obs)
20%: CIRAR % visual injury Obs ([2]; Compound A 10 g/ha (Table 42)) | CIRAR % visual injury Obs ([2]; Compound A 10 g/ha (Table 43)) | CIRAR % visual injury Obs ([2]; Compound A 10 g/ha (Table 44))
20% and 30% and 28%: % visual injury, Obs ([2]; CIRAR, Compound A 10 g/ha)
60%: visual injury, Obs ([2]; CIRAR, Compound A 15 g/ha alone) | % visual injury Obs ([2]; CIRAR, alone, 15 g/ha) | % visual injury, Obs ([2]; CIRAR, applied alone, 15 g/ha) | pest or weed control at 15 g/ha ([2]; Cirsium arvense, post-emergence, CIRAR, Compound A 15 g/ha, read-out: % visual injury Obs)
23% and 30%: % visual injury (Obs) ([2]; CIRAR, alone 10 g/ha)
55% and 83% and 70%: BRSNN Obs (% visual injury) ([10]; Compound A 10 g/ha)
91% and 70% and 78%: % visual injury, Obs ([1]; POLCO, Compound A 10 g/ha)
86% and 96% and 70%: % visual injury (Obs) ([1]; POLCO, alone 10 g/ha)
98% and 90%: % visual injury (Obs) ([3]; AMARE, alone 10 g/ha)
100%: AMARE % visual injury Obs ([3]; Compound A 10 g/ha (Table 42)) | AMARE % visual injury Obs ([3]; Compound A 10 g/ha (Table 43)) | AMARE % visual injury Obs ([3]; Compound A 10 g/ha (Table 44)) | visual injury, Obs ([5]; Compound A 10 g/ha alone) | visual injury, Obs ([5]; Compound A 15 g/ha alone) | % visual injury Obs ([5]; 10 g/ha) | % visual injury Obs ([5]; 15 g/ha) | % visual injury, Obs ([5]; 10 g/ha) | % visual injury, Obs ([5]; 15 g/ha) | pest or weed control at […] [5, 21] | pest or weed control at 10 g/ha [5, 22] | pest or weed control at 15 g/ha [5, 23] | visual injury, Obs ([6]; Compound A 15 g/ha alone) | % visual injury Obs ([6]; alone, 15 g/ha) | % visual injury, Obs ([6]; 15 g/ha) | pest or weed control at 15 g/ha [6, 23] | visual injury, Obs ([7]; Compound A 10 g/ha alone) | visual injury, Obs ([7]; Compound A 15 g/ha alone) | % visual injury Obs ([7]; 10 g/ha) | % visual injury Obs ([7]; 15 g/ha) | % visual injury, Obs ([7]; 10 g/ha) | % visual injury, Obs ([7]; 15 g/ha) | pest or weed control at 10 g/ha ([7]; Anthemis arvensis, post-emergence, Compound A 10 g/ha, read-out: % visual injury Obs) | pest or weed control at 15 g/ha ([7]; Anthemis arvensis, post-emergence, Compound A 15 g/ha, read-out: % visual injury Obs) | HELAN Obs (% visual injury) ([12]; without safener) | % visual injury, Obs ([12]; HELAN)
50% and 55%: % visual injury, Obs ([2]; CIRAR, applied alone, 10 g/ha)
78%: POLCO Obs (% visual injury) [1, 16]
90%: pest or weed control at 10 g/ha ([1]; Fallopia convolvulus, post-emergence, POLCO, Compound A 10 g/ha, read-out: % visual injury Obs) | % visual injury Obs ([1]; POLCO, Compound A 10 g/ha) | visual injury, Obs ([1]; POLCO, Compound A 10 g/ha alone) | % visual injury Obs ([1]; POLCO, alone 10 g/ha) | % visual injury Obs ([6]; Compound A 10 g/ha) | visual injury, Obs ([6]; Compound A 10 g/ha alone) | % visual injury Obs ([6]; alone, 10 g/ha) | % visual injury, Obs ([6]; 10 g/ha) | pest or weed control at 10 g/ha [6, 22] | % visual injury (Obs) ([15]; LAMPU, alone 10 g/ha)
85%: pest or weed control at […] ([1]; Fallopia convolvulus, post-emergence, POLCO, Compound A 7.5 g/ha, read-out: % visual injury Obs) | % visual injury, Obs ([3]; AMARE, applied alone, 10 g/ha) | pest or weed control at […] [6, 21] | GLXMA Obs (% visual injury) ([11]; without safener) | % visual injury, Obs ([11]; GLXMA)
10%: visual injury, Obs ([4]; VIOAR, Compound A 10 g/ha alone) | % visual injury Obs ([4]; VIOAR, 10 g/ha) | % visual injury, Obs ([4]; VIOAR, 10 g/ha) | pest or weed control at […] ([4]; Viola arvensis, post-emergence, VIOAR, Compound A 7.5 g/ha, read-out: % visual injury Obs) | pest or weed control at 10 g/ha ([4]; Viola arvensis, post-emergence, VIOAR, Compound A 10 g/ha, read-out: % visual injury Obs)
50%: visual injury, Obs ([2]; CIRAR, Compound A 10 g/ha alone) | % visual injury Obs ([2]; CIRAR, alone 10 g/ha) | pest or weed control at 10 g/ha ([2]; Cirsium arvense, post-emergence, CIRAR, Compound A 10 g/ha, read-out: % visual injury Obs)
70%: SETFA Obs (% visual injury) [13] | visual injury, Obs ([15]; LAMPU, Compound A 10 g/ha alone) | % visual injury Obs ([15]; LAMPU, alone 10 g/ha) | % visual injury, Obs ([15]; LAMPU, 10 g/ha) | pest or weed control at 10 g/ha [15, 24]
30%: pest or weed control at […] ([2]; Cirsium arvense, post-emergence, CIRAR, Compound A 7.5 g/ha, read-out: % visual injury Obs)
100% and 90%: % visual injury, Obs ([3]; AMARE, Compound A 10 g/ha)
91% and 70%: POLCO Obs (% visual injury) ([1]; Compound A 10 g/ha)
73% and 70%: % visual injury (Obs) ([10]; BRSNN, alone 10 g/ha)
20% and 23%: CIRAR Obs (% visual injury) ([2]; Compound A 10 g/ha)
28%: CIRAR Obs (% visual injury) [2, 16]
